# Data taken from patent publication US8541460B2, “PDK-1/Akt signaling inhibitors” (The Ohio State University, priority 2003, dated 2013).
# Like-named read-outs stand apart in the source and are kept apart here.
# What was measured:
# [1] = biological target: T1, recombinant PDK-1 (Homo sapiens, UniProt O15530); assay: PDK-1 kinase activity (Upstate kit, cell-free); type: biochemical
# T1 construct: purchased Upstate (Lake Placid, N.Y.)
# T1 sequence (O15530 1-556): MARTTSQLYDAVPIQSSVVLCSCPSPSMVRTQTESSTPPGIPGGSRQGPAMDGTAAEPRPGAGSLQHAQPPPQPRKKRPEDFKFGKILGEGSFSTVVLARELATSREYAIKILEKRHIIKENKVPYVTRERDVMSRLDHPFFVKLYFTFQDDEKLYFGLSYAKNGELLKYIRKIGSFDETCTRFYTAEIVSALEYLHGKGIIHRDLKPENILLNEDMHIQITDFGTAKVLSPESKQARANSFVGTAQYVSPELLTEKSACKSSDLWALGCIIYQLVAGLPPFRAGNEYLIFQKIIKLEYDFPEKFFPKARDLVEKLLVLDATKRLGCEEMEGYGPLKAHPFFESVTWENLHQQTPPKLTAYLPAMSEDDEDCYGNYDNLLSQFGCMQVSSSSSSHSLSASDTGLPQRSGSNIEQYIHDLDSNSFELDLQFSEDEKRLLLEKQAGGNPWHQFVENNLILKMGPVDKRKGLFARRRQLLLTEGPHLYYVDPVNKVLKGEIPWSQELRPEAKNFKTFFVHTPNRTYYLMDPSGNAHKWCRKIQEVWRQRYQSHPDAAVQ
# Protocol: PDK-1 kinase activity This in vitro assay was performed using a PDK-1 kinase assay kit (Upstate, Lake Placid, N.Y.) according to the vendor's instructions. This cell-free assay is based on the ability of recombinant PDK-1, in the presence of DMSO vehicle or the test agent, to activate its downstream kinase serum- and glucocorticoid-regulated kinase (SGK.) which, in turn, phosphorylates the Akt/SGK-specific peptide substrate RPRAATF with [γ-^32]-ATP. […] The reported values represent the means of two independent determinations.
# [2] = system: PC-3 cells; assay: PC-3 cell viability analysis (MTT); type: cell-based, human
# Protocol: Cell Culture PC-3 (p53−/−) human androgen-nonresponsive prostate cancer cells were purchased from the American […] (Manassas, Va.). Cells were cultured in RPMI 1640 medium (Gibco, Grand Island, N.Y.) supplemented with 10% fetal bovine serum (FBS; Gibco) at 37° C. in a humidified incubator containing 5% CO2.
# Cell viability analysis The effect of 4-[5-(4-methylphenyl)-3-(trifluoromethyl)-1H-pyrazol-1-yl]benzenesulfonamide and its derivatives on PC-3 cell viability was assessed by using the MTT {[3-(4,5-dimethylthiazol-2-yl)-2,5-diphenyl-2H-tetrazolium bromide]} assay in six replicates. Cells were grown in 10% FBS-supplemented RPMI 1640 medium in 96-well, flat bottomed plates for 24 h, and were exposed to various concentrations of compounds 1-36 dissolved in DMSO (final concentration≦0.1%) in 1% serum-containing RPMI 1640 medium for different time intervals. Controls received DMSO vehicle at a concentration equal to that in drug-treated cells. The medium was removed, replaced by 200 μl of 0.5 mg/ml of MTT in 10% FBS-containing RPMI-1640 medium, and cells were incubated in the CO2 incubator at 37° C. for 2 h. Supernatants were removed from the wells, and the reduced MTT dye was solubilized in 200 μL/well DMSO. Absorbance at 570 nm was determined on a plate reader.
# [3] = system: phospho-473Ser Akt; assay: Western blot of Akt and phospho-Akt in PC-3 cells; type: cell-based, human; settings: 5 μM and above
# Protocol: Immunoblotting. The general procedure for the Western blot analysis of Akt and phospho-Akt is described as follows. Cells were washed in PBS, resuspended in SDS sample buffer sonicated by an ultrasonic sonicator for 5 sec, and boiled for 5 min. After brief centrifugation, equivalent protein concentrations from the soluble fractions were resolved in 10% SDS-polyacrylamide gels on a Minigel apparatus, and transferred to a nitrocellulose membrane using a semi-dry transfer cell. The transblotted membrane was washed three times with TBS containing 0.05% Tween 20 (TBST). After blocking with TBST containing 5% nonfat milk for 60 min., the membrane was incubated with the primary antibody at 1:1,000 dilution in TBST-5% low fat milk at 4° C. for 12 h, and was then washed three times with TBST. The membrane was probed with goat anti-rabbit IgG-HRP conjugates (1:1,000) for 1 h at room temperature, and was washed with TBST three times. The immunoblots were visualized by enhanced chemiluminescence.
# [4] = system: Akt; assay: Immunoprecipitated Akt kinase assay, drug-treated PC-3 cells (intracellular Akt activation); type: cell-based; settings: Homo sapiens, PC-3 cells treated 2 h, read-out: IC50 for inhibiting intracellular Akt activation
# Protocol: Immunoprecipitated Akt kinase assay Akt immunoprecipitation was carried out according to a modified, published procedure. PC-3 cells were treated with DMSO vehicle or the test agents at the indicated concentrations for 2 h and then lysed at 4° C. for 1 h in buffer A containing 50 mM Tris-HCl, pH 7.5, 1% Triton X-100, 1 mM EDTA, 1 mM EGTA, 50 mM sodium fluoride, 10 mM sodium β-glycerophosphate. 0.1% 2-mercaptoethanol, 0.1 mM phenylmethylsiilfonyl fluoride, and 1 μg/mL each of aprotinin, pepstatin, and leupeptin. Cell lysates were centrifuged at 10,000 g for 5 min, and the supernatant was treated with anti-Akt at 4° C. for 60 min., followed by protein G-agarose beads for additional 60 min. The immunoprecipitate was used to analyze Akt kinase activity by using the Akt/SGK-specific peptide substrate RPRAATF as described above. Values represented the means of two independent determinations.
# [5] = system: immunoprecipitated Akt; assay: Direct inhibition of immunoprecipitated Akt kinase activity; type: biochemical, human
# [6] = inhibiting recombinant PDK-1 kinase activity, read-out: IC50 PDK-1
# [7] = inducing apoptotic death in PC-3 cells / PC-3 cell viability, read-out: IC50 PC-3
Compound,"IC50 [1, 6]","IC50 [2, 7]",other results
"4-[5-(4′triflouromethyl[1,1′-biphenyl]-4-yl)-3-(trifluoromethyl)-1H-1-yl]benzenesulfonamide [Compound 51]",18 µM,8 µM,
5-(2-Phenanthrenyl)-3-(trifluoromethyl)-4-(1H-tetrazol-5-ylmethylphenyl)-1H-pyrazole [Compound 69],45 µM,27 µM,
5-(2-Phenanthrenyl)-3-(trifluoromethyl)-4-(1H-tetrazol-5-ylphenyl)-1H-pyrazole [Compound 64],52 µM,32 µM,
"NS(=O)(=O)c1ccc(-n2nc(C(F)(F)F)cc2-c2ccc3c(ccc4ccccc43)c2)cc1 [Compound 59, 4-[5-(2-phenanthrenyl)-3-(trifluoromethyl)-1H-1-yl]benzenesulfonamide]",,,"IC50 ([2]; Homo sapiens, PC-3, 24 h, 1% FBS-containing RPMI 1640 medium, read-out: dose required to induce 50% PC-3 cell death): 5 µM; IC50 ([2]; Homo sapiens, inducing apoptotic death in PC-3 cells / PC-3 cell viability, read-out: IC50 PC-3): 5 µM; Akt dephosphorylation (Western blot) [3]: significant Akt dephosphorylation; IC50 [4]: 5 µM; direct inhibitory effect on immunoprecipitated Akt activity [5]: Neither compound 59 nor other the other compounds displayed a direct inhibitory effect"
"O/N=C/c1ccc(-n2nc(C(F)(F)F)cc2-c2ccc3c(ccc4ccccc43)c2)cc1 [Compound 65, 4-5[-(2-Phenanthrenyl)-3-(trifluoromethyl)-1H-pyraxol-1-yl]-benzaldehyde oxime]",,,IC50 [1]: 25 µM
